This is an account of results in patent US6132944A, “Photographic element containing high dye-yield couplers” (Eastman Kodak Company, priority 1999, dated 2000).

Read-outs that look alike come from different tables or passages of the source.

A short description of data set [1]: pKa by spectrophotometric titration in aqueous Triton X-100. It is filed as physicochemical. Conditions: for pKa: Table I; for pK1: first ionization, sulfonamide in conjugation with naphthalene; for pK2: second sulfonamide (in conjugation with the phenyl ring); for pKa (Sol. group): Table II. Here is the method:
In the following examples, the pKa values were determined by standard procedures using spectrophotometric titration of the compounds of interest. The spectrophotometric technique involves measuring the absorption spectra of the compound of interest in a range of buffer solutions. The absorption data (optical densities, ODobsd) can then be used to determine the corresponding pKa value(s) according to eq 1-3
ODobsd=ODHnA +ODHn-1A + (1)
=b[HnA]εHnA +b[Hn-1A]εHn-1A (2)
=b[total]fHnA εHnA +b[total]fHn-1A
Typically, the experimental constants (b and [total]) are combined with the extinction coefficient (ε) and expressed as the maximum optical density (ODmax) for a given species. Eq 3 then becomes,
=ODmaxHnA fHnA +ODmaxHn-1A fHn-1A (4)
The fraction of a given species (f) is a function of the pH and pKa values.
For example, for a system with one titratable proton eq 5-6,
Thus, the pKa and ODmax values can be determined from a set of XY pair data (pH, ODobsd) using a non linear least squares fit.
This technique relies on a difference in extinction coefficient between the species of interest at a given wavelength. This can be seen by inspection as a change in the absorption spectrum over a given pH range. In addition to this macroscopic data, (the experimental pKa values), the spectrophotometric technique can also provide microscopic information, i.e., information about the relationship between the individual titratable groups and the pKa values. In this manner, a pKa value may be attributed to titration of a particular group in a molecule, e.g., a solubilizing group.
The absorption spectra over a range of pH values and pKa values for the model sulfonamides such as Comp-11 and Comp-8 (defined for the examples hereinafter) as well as the coupler Comp-12 may be plotted. In model sulfonamide Comp-11 (pK 6.65), the optical density change resulting from ionization of the sulfonamide which is in conjugation with the naphthalene group may be pinpointed. Model sulfonamide Comp-8 comprises the entire solubilizing group pK1 7.03, pK2 10.00). […] Finally, in the spectrophotometric titration of the coupler Comp-12, the ionization of both sulfonamides in the solubilizing group as well as ionization of the coupling site pK1 6.85, pK2 9.85, pK3 10.84) can be seen.
In practice, a stock solution of the appropriate compound (1×10^-4 M) and Triton X-100 (1.2%) in water was prepared. The Triton X-100 (CAS Registry No. [9002-93-1], polyoxyethylene(10) isooctylcyclohexyl ether) was obtained from Aldrich Chemical Co. and used as received.
To 1.50 mL of the appropriate phosphate buffer (μ=0.75) were added 1.50 mL of the stock solution. The solution was agitated to ensure adequate mixing, and its absorption spectrum and pH were measured. A non linear least squares method was then used to fit the data to a one, two, or three pKa value model as appropriate.

The conditions of data set [2]: Table II, cited from earlier work.
The mark [3] stands for this setting: sol group, aqueous Triton X-100.

The pKa is the negative logarithm of the acid dissociation constant. The compound `CCCCCCCCCCCCCCCCS(=O)(=O)Nc1ccc(Cl)c(NC(=O)C(OC(=O)N(CC)c2ccc(N=Nc3ccc(C(=O)OCCCCCCCCCCCC)cc3)cc2)C(=O)C(C)(C)C)c1` (stereo not drawn) [Comp-1] showed a pKa in data set [1] (setting [3]) of 9.5.
In data set [1] (setting [3]), `CCCCCCCCCCCCCCCCNS(=O)(=O)c1ccc(Cl)c(NC(=O)C(OC(=O)N(CCCC)c2ccc(C=C(C#N)c3nc4ccccc4o3)c(C)c2)C(=O)c2ccc(OC)cc2)c1` (stereo not drawn) [Comp-2] had a pKa of 13.
The same measure, in the same setting: then `CCCCCCCCCCCCCCCCNS(=O)(=O)c1ccc(Cl)c(NC(=O)C(OC(=O)N(CCCCCCCCCCCC)c2ccc(C=C(C#N)c3nc4ccccc4o3)c(C)c2)C(=O)c2ccc(OC)cc2)c1` (stereo not drawn) [Comp-3], with 13.
For `CCCN(C(=O)OC(C(=O)Nc1ccccc1OC)C(=O)c1cccc(NS(=O)(=O)c2ccc(C)cc2)c1)c1ccc(C=C(C#N)c2nc3c(C)cc(C)cc3s2)c(C)c1` (stereo not drawn) [Comp-4], in data set [1] (inferred from Comp-5 and Comp-6), the pKa was 8.8.
The compound `CCCCCCCN(C(=O)OC(C(=O)Nc1ccccc1OC)C(=O)c1cccc(NS(=O)(=O)c2ccc(C)cc2)c1)c1ccc(C=C(C#N)c2nc3ccc(C)cc3o2)c(C)c1` (stereo not drawn) [Comp-5] showed a pKa in data set [1] (setting [3]) of 8.8.
Same read-out and setting: then `CCCCN(C(=O)OC(C(=O)Nc1ccccc1OC)C(=O)c1cccc(NS(=O)(=O)c2ccc(C)cc2)c1)c1ccc(C=C(C#N)c2nc3cc(C(C)(C)CC(C)(C)C)ccc3o2)c(C)c1` (stereo not drawn) [Comp-6], with 8.9.
Regarding `CS(=O)(=O)c1ccc(O)cc1` [Comp-7], the “pKa (Sol. group)” value in data set [2] (in water (Bordwell and Cooper)) is listed as 7.8.
In data set [1], `CS(=O)(=O)Nc1ccc(S(=O)(=O)Nc2ccc(Cl)cc2)c2ccccc12` [Comp-8] showed a pK1 of 7.03 and a pK2 of 10.00.
As to `CC(=O)c1cccc(NS(=O)(=O)c2ccc(C)cc2)c1` [Comp-9], in data set [1] (aqueous Triton X-100), the “pKa (Sol. group)” value is recorded as 8.7.
Take `COc1ccccc1NC(=O)CC(=O)c1cccc(NS(=O)(=O)c2ccc(C)cc2)c1` [Comp-10]: the “pKa at the coupling site” value in data set [1] (Example 2) is 10.3. Moreover, the “pKa (Sol. group)” value in data set [1] (aqueous Triton X-100) is 8.8.
As for `CN(C)S(=O)(=O)c1ccc(NS(C)(=O)=O)c2ccccc12` [Comp-11], the “pKa (Sol. group)” value in data set [1] (aqueous Triton X-100) stood at 6.6. Moreover, in data set [1] (sulfonamide in conjugation with the naphthalene group), the pK came to 6.65.
Take `CC(C)(C)C(=O)CC(=O)Nc1cc(NS(=O)(=O)c2ccc(NS(C)(=O)=O)c3ccccc23)ccc1Cl` [Comp-12]: the “pKa (Sol. group)” value in data set [1] (aqueous Triton X-100) is on record as 6.8. In data set [1], the pK1 is 6.85 and the pK2 is reported as 9.85. For the same compound, the pK3 in data set [1] (third ionization) was 10.84.
With `CCCCCCCCCCCCCCCCS(=O)(=O)Nc1ccc(Cl)c(NC(=O)CC(=O)C(C)(C)C)c1` [Comp-16], the “pKa (Sol. group)” value in data set [1] (aqueous Triton X-100) is 9.4.
Same read-out and setting: the figure for `CCCCCCCCCCCCCCCCS(=O)(=O)Nc1ccc(Cl)c(NC(C)=O)c1` [Comp-17] is 9.5.
For `CNS(=O)(=O)c1ccccc1` [Comp-18], the “pKa (Sol. group)” value in data set [2] (in water (King)) is 11.43.
Consider `CCCCCCCCCCCCCCCCNS(=O)(=O)c1ccccc1` [Comp-19], for which the “pKa (Sol. group)” value in data set [1] (aqueous Triton X-100) was determined as 13.0.
The same measure, in the same setting: the figure for `CC(=O)Nc1cc(NS(=O)(=O)c2ccc(O)cc2)ccc1Cl` [Comp-20] is 8.1.
On to `Cc1cc(N(C(=O)OC(C(=O)Nc2cc(NS(=O)(=O)c3ccc(O)cc3)ccc2Cl)C(=O)C(C)(C)C)C2CCCC2)ccc1C=C(C#N)c1nc2cc(C(C)(C)CC(C)(C)C)ccc2o1` (stereo not drawn) [Comp-21], for which the pKa in data set [1] (setting [3]) is given as 8.8.
The same measure, in the same setting: then `Cc1cc(N(C(=O)OC(C(=O)Nc2cc(NS(=O)(=O)c3ccc(O)c(NS(C)(=O)=O)c3)ccc2Cl)C(=O)C(C)(C)C)C2CCCC2)ccc1C=C(C#N)c1nc2cc(C(C)(C)CC(C)(C)C)ccc2o1` (stereo not drawn) [Inv-1], with 7.2; and `COc1ccc(C(=O)C(OC(=O)N(c2ccc(C=C(C#N)c3nc4cc(C(C)(C)CC(C)(C)C)ccc4o3)c(C)c2)C2CCCC2)C(=O)Nc2cc(NS(=O)(=O)c3ccc(O)cc3)ccc2Cl)cc1` (stereo not drawn) [Inv-3], with 8.7.
The same measure, in the same setting: then `CCN(C(=O)OC(C(=O)Nc1cc(NS(=O)(=O)c2c(NS(C)(=O)=O)ccc3ccccc23)ccc1Cl)C(=O)c1ccc(OC)cc1)c1ccc(C=C(C#N)c2nc3cc(C(C)(C)CC(C)(C)C)ccc3o2)c(C)c1` (stereo not drawn) [Inv-4], with 6.5; and `CCN(C(=O)OC(C(=O)Nc1cc(NS(=O)(=O)c2ccc(NS(C)(=O)=O)c3ccccc23)ccc1Cl)C(=O)c1ccc(OC)cc1)c1ccc(C=C(C#N)c2nc3cc(C(C)(C)CC(C)(C)C)ccc3o2)c(C)c1` (stereo not drawn) [Inv-5], with 6.7; and `Cc1cc(N(C(=O)OC(C(=O)Nc2cc(NS(=O)(=O)c3ccc(NS(C)(=O)=O)cc3O)ccc2Cl)C(=O)C(C)(C)C)C2CCCC2)ccc1C=C(C#N)c1nc2cc(C(C)(C)CC(C)(C)C)ccc2o1` (stereo not drawn) [Inv-6], with 7.4.
Still for that read-out and setting: then `CCN(C(=O)OC(C(=O)Nc1cc(NS(=O)(=O)c2ccc(NS(C)(=O)=O)cc2)ccc1Cl)C(=O)c1ccc(OC)cc1)c1ccc(C=C(C#N)c2nc3cc(C(C)(C)CC(C)(C)C)ccc3o2)c(C)c1` (stereo not drawn) [Inv-7], with 7.9; and `CCN(C(=O)OC(C(=O)Nc1cc(NS(=O)(=O)c2ccccc2NS(C)(=O)=O)ccc1Cl)C(=O)c1ccc(OC)cc1)c1ccc(C=C(C#N)c2nc3cc(C(C)(C)CC(C)(C)C)ccc3o2)c(C)c1` (stereo not drawn) [Inv-8], with 6.1.
In data set [1] (setting [3]), `Cc1cc(N(C(=O)OC(C(=O)Nc2cc(NS(=O)(=O)c3cccc(NS(C)(=O)=O)c3)ccc2Cl)C(=O)C(C)(C)C)C2CCCC2)ccc1C=C(C#N)c1nc2cc(C(C)(C)CC(C)(C)C)ccc2o1` (stereo not drawn) [Inv-9] gave a pKa of 7.9.
As for `COc1ccc(C(=O)C(OC(=O)N(c2ccc(C=C(C#N)c3nc4cc(C(C)(C)CC(C)(C)C)ccc4o3)c(C)c2)C2CCCC2)C(=O)Nc2cc(NS(=O)(=O)c3ccccc3NS(C)(=O)=O)ccc2Cl)cc1` (stereo not drawn) [Inv-10], in data set [1] (setting [3]), the pKa was 6.1.
